# Measurements taken from patent publication US9732111B2, “2′-alkynyl substituted nucleoside derivatives and methods of use thereof for the treatment of viral diseases” (Merck Sharp & Dohme Corp., priority 2012, dated 2017).
# Where two headings read alike, the source gives them in different places.
# Tests used:
# [1] = tested on: replicon cells (1b-Con1); assay: Cytotoxicity in replicon cells (MTS assay); conditions: CC50, MTS assay, three days post dosing
# [2] = tested on: HCV replicon cells (1b-Con1); assay: Replicon activity assay (replicon RNA level by real-time RT-PCR); type: cell-based; conditions: Hepatitis C virus, 72 h, read-out: Replicon (1b) EC50
# [3] = molecular target: T1, HCV NS5B RNA-dependent RNA polymerase (1b-BKΔ55) (Hepatitis C virus genotype 1b, UniProt P26663); assay: Inhibition of HCV NS5B polymerase by nucleoside triphosphate analogs (radiolabeled nucleotide incorporation assay); type: biochemical
# T1 construct: 5 nM NS5B (1b-BKΔ55) enzyme
# Protocol: To measure inhibition of the enzymatic activity of the HCV NS5B RNA-dependent RNA polymerase by the nucleoside triphosphate compounds of the present invention, a radiolabeled nucleotide incorporation assay was used. This assay is a modified version of the assay described in International Publication No. WO2002/057287. Briefly, 50 μL reactions containing 20 mM HEPES (pH 7.3); 7.5 mM DTT; 20 units/mL RNasIN; 1 μM each of ATP, GTP, UTP and CTP; 20 μCi/mL [^33P]-CTP; 10 mM MgCl; 60 mM NaCl; 100 μg/mL BSA; 0.021 μM DCoH heteropolymer RNA template; and 5 nM NS5B (1b-BKΔ55) enzyme are incubated at room temperature for 1 hour. The assay is then terminated by the addition of 500 mM EDTA (50 μL). The reaction mixture is transferred to a Millipore DE81 filter plate and the incorporation of labeled CTP is determined using Packard TopCount. Compound IC50 values can then be calculated from experiments with 10 serial 3-fold dilutions of the inhibitor in duplicate. The intrinsic potency (Ki) of an NTP inhibitor is derived from its NS5B IC50 using the Cheng-Prusoff equation for a competitive inhibitor, as described in Cheng et al., Biochem Pharmacol 22:3099-3108 (1973): Ki=IC50/(1+[S]/Km), where [S]=1 μM, and Km is the concentration of cognate NTP yielding half-maximal enzyme activity in the assay absent exogenous inhibitors.
# Data was obtained using this method for the NTP analogs of selected compounds below of the present invention, and is set forth below.
# T1 sequence (P26663 2420-2955, stated change not applied): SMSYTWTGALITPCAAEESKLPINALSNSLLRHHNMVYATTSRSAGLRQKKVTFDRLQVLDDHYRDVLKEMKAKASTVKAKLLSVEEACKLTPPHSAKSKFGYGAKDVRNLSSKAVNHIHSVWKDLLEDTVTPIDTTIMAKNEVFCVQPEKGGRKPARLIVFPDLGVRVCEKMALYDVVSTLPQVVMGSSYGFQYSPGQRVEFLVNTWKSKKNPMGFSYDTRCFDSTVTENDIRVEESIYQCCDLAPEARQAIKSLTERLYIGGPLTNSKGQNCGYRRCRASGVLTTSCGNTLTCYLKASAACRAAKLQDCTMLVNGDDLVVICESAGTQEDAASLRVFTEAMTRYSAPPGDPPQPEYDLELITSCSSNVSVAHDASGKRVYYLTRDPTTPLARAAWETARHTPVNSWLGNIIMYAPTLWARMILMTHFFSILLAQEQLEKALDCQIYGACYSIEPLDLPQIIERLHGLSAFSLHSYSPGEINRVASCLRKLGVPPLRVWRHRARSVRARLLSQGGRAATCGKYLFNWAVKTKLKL
compound,measurement,setting,value
CC#C[C@@]1(F)[C@H](O)[C@@H](COP(=O)(N[C@@H](C)C(=O)OC(C)C)Oc2ccccc2)O[C@H]1n1ccc(=O)[nH]c1=O (stereo partly shown),Cytotoxicity,[1],74.4 µM
same,EC50,[2],45.7 µM
CC#C[C@]1(O)[C@H](O)[C@@H](COP(=O)(O)OP(=O)(O)OP(=O)(O)O)O[C@H]1n1ccc(=O)[nH]c1=O,Ki,[3],~12 µM
"CC#C[C@]1(O)[C@H](O)[C@@H](COP(=O)(N[C@@H](C)C(=O)OC(C)C)Oc2ccccc2)O[C@H]1n1ccc(=O)[nH]c1=O (single isomer, unassigned)",Cytotoxicity,[1],>100 µM
same,EC50,[2],0.94 µM
C#C[C@@]1(N)[C@H](O)[C@@H](COP(=O)(O)OP(=O)(O)OP(=O)(O)O)O[C@H]1n1ccc(=O)[nH]c1=O,Ki,[3],1.2 µM
CC(C)OC(=O)[C@H](C)NP(=O)(OC[C@H]1O[C@@H](n2ccc(=O)[nH]c2=O)[C@@](O)(C#CC2CC2)[C@@H]1O)Oc1ccccc1 (stereo partly shown),Cytotoxicity,[1],14.2 µM
same,EC50,[2],1.1 µM
"C#C[C@@]1(O)[C@@H]2OP(=O)(OC(C)C)OC[C@H]2O[C@H]1n1ccc(=O)[nH]c1=O (single isomer, unassigned)",Cytotoxicity,[1],>100 µM
same,EC50,"[2]; 1b-Con1 replicon cells, three days post-dosing",21 µM
CC#C[C@@]1(O)[C@H](O)[C@@H](COP(=O)(O)OP(=O)(O)OP(=O)(O)O)O[C@H]1n1ccc(=O)[nH]c1=O,Ki,[3],0.058 µM
"C#C[C@@]1(O)[C@H](OC(=O)C(C)C)[C@@H](COP(=O)(N[C@@H](C)C(=O)OC(C)C)Oc2ccccc2)O[C@H]1n1ccc(=O)[nH]c1=O (single isomer, unassigned)",Cytotoxicity,[1],>100 µM
same,EC50,[2],0.1 µM
CC(C)OC(=O)[C@H](C)NP(=O)(OC[C@H]1O[C@@H](n2ccc(=O)[nH]c2=O)[C@@](O)(C#CC(F)(F)F)[C@@H]1O)Oc1ccccc1 (stereo partly shown),Cytotoxicity,[1],40.7 µM
same,EC50,[2],25.2 µM
C#C[C@]1(O)[C@H](O)[C@@H](COP(=O)(O)OP(=O)(O)OP(=O)(O)O)O[C@H]1n1ccc(=O)[nH]c1=O,Ki,[3],~19 µM
"C#C[C@@]1(O)[C@H](O)[C@@H](COP(=O)(N[C@@H](C)C(=O)OC(C)C)Oc2ccccc2)O[C@H]1n1ccc(=O)[nH]c1=O (single isomer, unassigned)",Cytotoxicity,[1],>100 µM
same,EC50,[2],0.09 µM
C#C[C@@]1(O)[C@H](O)[C@@H](COP(=O)(O)OP(=O)(O)OP(=O)(O)O)O[C@H]1n1ccc(=O)[nH]c1=O,Ki,[3],0.036 µM
